The source of these data is patent US20260374773A1, “MULTI-CYCLIC IRAK AND FLT3 INHIBITING COMPOUNDS AND USES THEREOF” (CHILDREN'S HOSPITAL MEDICAL CENTER, priority 2022, published 2026).

Type in all cases: cell-based
The subject of one assay is MOLM14 D835Y cells. As to the kind of experiment: MOLM14 D835Y cell viability (Cell Titer Glo). The note with it: Homo sapiens, MOLM-14, Table 16, 48 h. Put shortly:
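FLT3-D835Y-mutant MOLM14 cells, 1000/well in RPMI-1640 with 20% FBS, treated with 22-point 1:2 dilutions starting at 10 μM. After 48 h incubation, viability was read by CellTiter-Glo luminescence; bortezomib (2.3 μM final) served as cytotoxic control.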

A further assay deals with NF-κB. Briefly: NF-κB SEAP reporter assay in THP-1-Blue NF-κB cells, Pam3CSK4 stimulated. The note with it: Table 15; THP-1-Blue cells, 1 ng/ml Pam3CSK4, 24 h; read-out: NF-κB Pam3SCK4 IC50. Here is the method: (§1) THP-1-Blue NF-κB cells (InvivoGen) carrying a stable integrated NF-κB-inducible secreted embryonic alkaline phosphatase (SEAP) reporter construct were plated at a concentration of 1×10^5 cells per well. The cells were stimulated with Pam3CSK4 (1 ng/ml) or hIL1B (1 ng/ml). After 10-20 minutes, the cells were then treated with vehicle (DMSO) or serial dilutions of the test compounds (10 doses tested for each test compound, with a […] starting at 1 μM or 3 μM) with a final volume of 200 μL for 24 hours at 37 °C. After 24 hours, the cells were centrifuged and 20 μL supernatant was incubated with 180 μL QUANTI-Blue reagent at 37 °C for 30-60 minutes. The levels of NF-κB-induced was measured in a microplate reader at 620 nm.
as §1, with “1 mM” for “1 μM”, “3 mM)” for “3 μM)”, “200 mL” for “200 μL”, “20 mL” for “20 μL”, “180 mL” for “180 μL”, “NF-κB-induced gene expression were” for “NF-κB-induced was”

A further assay has as its system MOLM14 F691L cells. As to the kind of experiment: MOLM14 F691L cell viability (Cell Titer Glo). The note with it: Homo sapiens, MOLM-14, Table 16, 48 h. As for the experimental part:
Both cell lines have activated FLT3 receptors, each of which carry additional resistance mutations in the kinase domain (D835Y and F691L, respectively).
MOLM14 D835Y and MOLM14 F691L cells were grown in RPMI-1640 media supplemented with 20% fetal bovine serum (FBS). For viability/cytotoxicity assessments, cells were seeded into 1536-well white polystyrene tissue culture-treated Greiner plates using a Multidrop Combi dispenser (ThermoFisher), in final volume 5 μL of growth media per well, at a density of 1000 cells per well. After cell addition, 23 nL of test compound were transferred into individual wells (22 doses tested for each test compound, with a 1:2 dilution series starting at 10 μM) via a 1536 pin-tool. Bortezomib (final concentration 2.3 μM) was used as a positive control for cell cytotoxicity. Plates were incubated for 48 hours at standard incubator conditions covered by a stainless steel gasketed lid to prevent evaporation. 48 hours post compound addition, 3 μL of Cell Titer Glo (Promega) were added to each well and plates were incubated at room temperature for 15 minutes with the stainless-steel lid in place. Luminescence readings were taken using a Viewlux imager (PerkinElmer) with a 2 second exposure time per plate.

Regarding `COc1cn2ncc(-c3nc(N[C@@H]4CCCNC4)c(F)cc3F)c2nc1C(C)(C)O` [Compound 11, (R)-2-(3-(3,5-difluoro-6-(piperidin-3-ylamino)pyridin-2-yl)-6-methoxypyrazolo[1,5-a]pyrimidin-5-yl)propan-2-ol], the half-inhibitory concentration (IC50) in the assay on MOLM14 D835Y cells was 13 nM; in the assay with NF-κB, 128 nM; in the assay with MOLM14 F691L cells, 142 nM.

Consider `COc1cn2ncc(-c3nc(N[C@H]4CNCC[C@@H]4F)ccc3F)c2nc1C1CC1` [Compound 3, 6-(5-cyclopropyl-6-methoxypyrazolo[1,5-a]pyrimidin-3-yl)-5-fluoro-N-((3S,4S)-4-fluoropiperidin-3-yl)pyridin-2-amine], for which the IC50 in the assay with MOLM14 D835Y cells stood at 2 nM; with NF-κB, 22 nM; with MOLM14 F691L cells, 6 nM.

For `COc1cn2ncc(-c3nc(N[C@@H]4CCCNC4)ccc3F)c2nc1C1CC1` [Compound 2, (R)-6-(5-cyclopropyl-6-methoxypyrazolo[1,5-a]pyrimidin-3-yl)-5-fluoro-N-(piperidin-3-yl)pyridin-2-amine], the results for the 50% inhibitory concentration (IC50) in the assay on MOLM14 D835Y cells, in the assay with NF-κB and in the assay with MOLM14 F691L cells were 2 nM, 71 nM and 14 nM, respectively.

With `COc1cn2ncc(-c3nc(N[C@H]4CNC[C@@H]4F)c(F)cc3F)c2nc1C(C)(C)O` [Compound 12, 2-(3-(3,5-difluoro-6-(((3S,4S)-4-fluoropyrrolidin-3-yl)amino)pyridin-2-yl)-6-methoxypyrazolo[1,5-a]pyrimidin-5-yl)propan-2-ol], the IC50 in the assay on MOLM14 D835Y cells turned out to be 32 nM; in the assay with NF-κB, 42 nM; in the assay with MOLM14 F691L cells, 449 nM.

For `COc1cn2ncc(-c3nc(N[C@H]4CNCC[C@@H]4F)c(F)cc3F)c2nc1C(C)(C)O` [Compound 13, 2-(3-(3,5-difluoro-6-(((3S,4S)-4-fluoropiperidin-3-yl)amino)pyridin-2-yl)-6-methoxypyrazolo[1,5-a]pyrimidin-5-yl)propan-2-ol], the IC50 with MOLM14 D835Y cells worked out at 14 nM; in the assay on NF-κB, 99 nM; in the assay on MOLM14 F691L cells, 113 nM.
